From ChEMBL document CHEMBL1123567, “2-Oxo-1,8-naphthyridine-3-carboxylic acid derivatives with potent gastric antisecretory properties” (1987)

Assays:
[1] = tested on: Rattus norvegicus; assay: Antisecretory activity at 32 mg/kg dose administered intraduodenally in the pylorus-ligated rat; format: functional; settings: route intraduodenal
[2] = tested on: Rattus norvegicus; assay: Antisecretory activity (total acid output) at 8 mg/kg dose administered intraduodenally in the pylorus-ligated rat; format: functional; settings: route intraduodenal
[3] = tested on: Rattus norvegicus; assay: Antisecretory activity (total acid output) at 4 mg/kg dose administered intraduodenally in the pylorus-ligated rat; format: functional; settings: route intraduodenal
[4] = tested on: Rattus norvegicus; assay: Antisecretory activity (total acid output) at 16 mg/kg dose administered intraduodenally in the pylorus-ligated rat; format: functional; settings: route intraduodenal
[5] = tested on: Rattus norvegicus; assay: Antisecretory activity (total acid output) at 2 mg/kg dose administered intraduodenally in the pylorus-ligated rat; format: functional; settings: route intraduodenal
[6] = tested on: Canis familiaris; assay: Antisecretory activity (total acid output) at 2 mg/kg dose administered (po) in Gastric pouch dog was determined by dose related inhibition of food stimulated gastric acid secretion; format: functional, Canis lupus familiaris, Stomach; parameters: scale not given: the % may be the effect or the level left
[7] = tested on: Canis familiaris; assay: Antisecretory activity (total acid output) at 4 mg/kg dose administered (po) in Gastric pouch dog was determined by dose related inhibition of food stimulated gastric acid secretion; format: functional, Canis lupus familiaris, Stomach; parameters: scale not given: the % may be the effect or the level left
[8] = tested on: Rattus norvegicus; assay: Antisecretory activity (total acid output) at 0.5 mg/kg dose administered intraduodenally in the pylorus-ligated rat; format: functional; settings: route intraduodenal
[9] = tested on: Canis familiaris; assay: Antisecretory activity (total acid output) at 8 mg/kg dose administered (po) in Gastric pouch dog was determined by dose related inhibition of food stimulated gastric acid secretion; format: functional, Canis lupus familiaris, Stomach; parameters: scale not given: the % may be the effect or the level left
[10] = tested on: Canis familiaris; assay: Antisecretory activity (total acid output) at 16 mg/kg dose administered (po) in Gastric pouch dog was determined by dose related inhibition of food stimulated gastric acid secretion; format: functional, Canis lupus familiaris, Stomach; parameters: scale not given: the % may be the effect or the level left

Compound	Control [1] [%]	other results
CCn1c(=O)c(C#N)c(N)c2ccc(C)nc21	62	
CCOC(=O)c1c(N)c2cccnc2n(C)c1=O	21	
CCOC(=O)c1c(N2CCN(C)CC2)c2ccc(C)nc2n(CC)c1=O	7.5	Control [2]: 45%; Control [3]: 66%; Control [4]: 28%; Control [5]: 85%; Control [6]: 95%; Control [7]: 40%
CCNc1c(C(=O)OCC)c(=O)n(CC)c2nc(C)ccc12	36	
CCOC(=O)c1c(N)c2cccnc2n(C2CCCCC2)c1=O	48	
CCOC(=O)c1c(N2CCN(C)CC2)c2ccc(C)nc2n(C)c1=O	9	
CCOC(=O)c1c(NCC(O)c2ccccc2)c2ccc(C)nc2n(CC)c1=O (stereo unspecified)	111	
CCOC(=O)c1c(N)c2c(C)cc(C)nc2n(CC)c1=O	50	
CCOC(=O)c1c(N)c2cccnc2n(CC(C)C)c1=O	28	
CCOC(=O)c1c(N(CC)CC)c2ccc(C)nc2n(CC)c1=O	55	
CCCn1c(=O)c(C(=O)OCC)c(N)c2cccnc21	30	
CCOC(=O)c1c(N2CCN(C)CC2)c2cccnc2n(C)c1=O	25	
CCCCOC(=O)c1c(N)c2cccnc2n(CC)c1=O	26	
CCOC(=O)c1c(O)c2ccc(C)nc2n(C)c1=O	51	
CCOC(=O)c1c(NCCCN(C)C)c2ccc(C)nc2n(CC)c1=O	77	
CCOC(=O)c1c(N2CCCC2)c2cccnc2n(C)c1=O	51	
CCOC(=O)c1c(N2CC[N+](C)(C)CC2)c2ccc(C)nc2n(CC)c1=O.[Cl-]	123	
CCNc1cc(C)c2c(N)c(C(=O)OCC)c(=O)n(CC)c2n1	58	
CCOC(=O)c1c(N2CCNCC2)c2ccc(C)nc2n(CC)c1=O	10	

Compound	Control [1] [%]	other results
CCOC(=O)c1c(O)nc2nc(C)cc(C)c2c1N	89	
CCOC(=O)c1c(N2CCN(C(=O)OCC)CC2)c2ccc(C)nc2n(CC)c1=O	70	
CCOC(=O)c1c(O)c2cccnc2n(CC)c1=O	63	
CCOC(=O)c1c(Cl)c2ccc(C)nc2n(CC)c1=O	66	
CCn1c(=O)c(C(=O)O)c(N)c2cccnc21	37	
CCn1c(=O)c(C(N)=O)c(N)c2cccnc21	19	
C=CCn1c(=O)c(C(=O)O)c(NC(=O)CCl)c2cccnc21	63	
CCN(CC)CCNC(=O)c1c(N)c2cccnc2n(CC)c1=O	56	
C=CCn1c(=O)c(C(=O)OCC)c(N2CCCC2)c2ccc(C)nc21	59	
Nc1c(C(=O)O)c(O)nc2ncccc12	72	
CCOC(=O)c1c(N2CCCC2)c2ccc(C)nc2n(CC)c1=O	29	
C=CCn1c(=O)c(C(=O)OCC)c(O)c2ccc(C)nc21	73	
CCOC(=O)C(=O)Nc1c(C(=O)OCC)c(=O)n(CC)c2ncccc12	28	
CN/C(=N\CCSCc1nc[nH]c1C)NC#N [CIMETIDINE]		Inhibition of gastric acid secretion (% relative to control) [1]: 80%
CCn1c(=O)c(C(=O)O)c(N2CCN(C)CC2)c2ccc(C)nc21	89	
CCC(C)OC(=O)c1c(N)c2cccnc2n(CC)c1=O (stereo unspecified)	42	
CCOC(=O)c1c(OCC)c2ccc(C)nc2n(CC)c1=O	46	
CCOC(=O)c1c(O)c2ccc(C)nc2n(CC)c1=O	53	
CCOC(=O)c1c(N)c2ccc(C)nc2n(CCO)c1=O	74	

Compound	Control [1] [%]	other results
CCOC(=O)c1c(N2CCN(C)CC2)c2cccnc2n(CC)c1=O	17	
CCNC(=O)c1c(N)c2cccnc2n(CC)c1=O	28	
CCn1c(=O)c(C(N)=O)c(N)c2ccc(C)nc21	55	
CCOC(=O)c1c(N2CCCC2)c2ccc(C)nc2n(C)c1=O	32	
CCN(CC)CCOC(=O)c1c(N)c2cccnc2n(CC)c1=O	40	
CCOC(=O)c1c(N(C)CCO)c2ccc(C)nc2n(CC)c1=O	59	
CCn1c(=O)c(C#N)c(N2CCCC2)c2ccc(C)nc21	67	
CCOC(=O)c1c(NC(C)=O)c2cccnc2n(CC)c1=O	67	
CCOC(=O)c1c(NC(=O)C(F)(F)F)c2cccnc2n(CC)c1=O	22	
CCn1c(=O)c(C(=O)NN)c(N)c2cccnc21	29	
CCOC(=O)c1c(N)c2cccnc2n(CC)c1=O	18	Control [2]: 35%; Control [3]: 55%; Control [8]: 100%; Control [4]: 17%; Control [5]: 58%; Control [9]: 97%; Control [7]: 92%; Control [10]: 62%
CCOC(=O)c1c(O)nc2nc(C)ccc2c1N1CCN(C)CC1	34	
CCOC(=O)c1c(N(C(C)=O)C(C)=O)c2cccnc2n(CC)c1=O	59	
C=CCn1c(=O)c(C(=O)OCC)c(N)c2cccnc21	22	
CCOC(=O)c1c(N2CCOCC2)c2ccc(C)nc2n(CC)c1=O	22	
CCOC(=O)c1c(O)nc2ncccc2c1N	44	
CCOC(=O)c1c(N)c2ccc(C)nc2n(CC)c1=O	33	
CCn1c(=O)c(C(=O)O)c(N)c2cc(NC(C)=O)cnc21	82	
CCOC(=O)c1c(N(C(C)=O)C(C)=O)c2c(C)cc(C)nc2n(CC)c1=O	76	
